Where two headings read alike, the source gives them in different places.
Key:
[1] = target: bovine serum albumin (BSA) (Bos taurus, UniProt P02769); format: binding; details: pH 7.4
[2] = target: porcine serum albumin (PSA) (Sus scrofa, UniProt P08835); format: binding; details: pH 7.4
rat serum albumin (RSA) = rat serum albumin (RSA) (Rattus norvegicus, UniProt P02770); format: binding; details: pH 7.4
[3] = target: warfarin-HSA interaction (Sudlow's Site I) (Homo sapiens, UniProt P02768); format: binding
Sequence of warfarin-HSA interaction (Sudlow's Site I) (P02768 25-609 limits assumed): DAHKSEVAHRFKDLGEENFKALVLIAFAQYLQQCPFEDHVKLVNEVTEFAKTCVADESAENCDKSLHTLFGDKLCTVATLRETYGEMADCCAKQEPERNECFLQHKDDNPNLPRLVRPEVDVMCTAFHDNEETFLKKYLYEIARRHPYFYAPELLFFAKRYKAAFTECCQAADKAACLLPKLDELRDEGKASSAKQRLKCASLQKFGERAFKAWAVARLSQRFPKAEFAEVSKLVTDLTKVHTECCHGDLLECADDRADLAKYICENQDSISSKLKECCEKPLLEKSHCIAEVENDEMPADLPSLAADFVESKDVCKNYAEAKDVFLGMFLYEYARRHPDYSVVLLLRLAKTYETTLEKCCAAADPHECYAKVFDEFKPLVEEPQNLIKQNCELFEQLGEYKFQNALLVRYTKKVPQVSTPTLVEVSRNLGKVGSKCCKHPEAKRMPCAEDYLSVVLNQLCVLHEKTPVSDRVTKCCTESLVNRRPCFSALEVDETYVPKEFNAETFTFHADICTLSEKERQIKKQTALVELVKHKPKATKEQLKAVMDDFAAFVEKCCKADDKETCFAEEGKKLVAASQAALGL

[4] = target: T1, human serum albumin (HSA) (Homo sapiens, UniProt P02768); assay: Fluorescence quenching of HSA by aflatoxins; format: binding; design: purchased Sigma-Aldrich; details: pH 7.4
T1 sequence (P02768 25-609): as the sequence (P02768 25-609 limits assumed) above
Procedure: In order to characterize aflatoxin-HSA interactions, fluorescence quenching studies were performed. Increasing aflatoxin concentrations (0–10 μM) were added to a standard amount of HSA (2 μM) then fluorescence emission spectra of HSA were recorded (λexc = 280 nm). […] To exclude the possible involvement of the inner filter effect, fluorescence emission intensities were corrected based on the absorbance of aflatoxins (Equation (1)). […].
Fluorescence measurements were performed employing Hitachi F-4500 fluorescence spectrophotometer. UV-Vis spectra were recorded applying Specord Plus 210 (Analytic Jena AG, Jena, Germany) spectrophotometer. All measurements were carried out at 25 °C.
During fluorescence quenching experiments, emission intensities of albumin were determined in the presence of 2 μM albumin with and without aflatoxins (0–10 μM) using 280 and 334 nm as excitation and emission wavelengths, respectively. Inner filter effects of aflatoxins were eliminated applying the following equation [33]:(1) Icor=Iobs×e^(Aexc+Aem)/2 where Icor and Iobs are the corrected and observed fluorescence emission intensities, respectively; while Aexc and Aem are the absorption of aflatoxins at 280 and 334 nm, respectively.
Complex formations of aflatoxins with albumins were investigated applying the Stern-Volmer equation:(2) I0/I=1+KSV×[Q] where I and I0 denote the fluorescence intensities of albumin with and without aflatoxins, respectively. KSV (with the unit of dm^3/mol) is the Stern-Volmer quenching constant and [Q] is the molar concentration of aflatoxins.
Association constants (Ka) and number of binding sites (n) were determined by linear fitting, employing the double logarithmic Stern-Volmer equation [33]:(3) log(I0−I)/I=logKa+n×log[Q] where I and I0 denote the fluorescence intensities of albumin with and without aflatoxins, respectively; while [Q] is the molar concentration of aflatoxins.
Thereafter, binding constants of aflatoxin-albumin complexes were quantified by Hyperquad2006 program package, assuming 1:1 stoichiometry, (4) I=I0+(IHG−I0)/2⋅[H]0⋅([H]0+[G]0+1/K−([H]0+[G]0+1/K)^2−4⋅[H]0⋅[G]0) where, I0 and I denote the emission intensities of albumin at 334 nm in the absence and presence of aflatoxins, respectively; IHG is the emission intensity of pure aflatoxin-albumin complex at 334 nm (calculated by the Hyperquad2006); K denotes the binding constant (with the unit of dm^3/mol); [H]0 and [G]0 are the total concentrations of albumin and aflatoxin, respectively.

[5] = target: T1, human serum albumin (HSA); assay: Thermodynamic studies (van't Hoff) of complex formation with HSA; format: binding; design: purchased Sigma-Aldrich
Procedure: In order to investigate the temperature dependence of AFB1-HSA interaction, binding constants were determined between 25 and 40 °C. […] Using the temperature-dependence of the stability constants, the thermodynamic parameters associated to the interaction of AFB1 with HSA was also determined using the van’t Hoff equation (Equation (5)). […]. This value is within the typical range of non-covalent interactions. ΔH and ΔS values of the AFB1-HSA complex formation were −10.48 kJ mol^−1 and 55.1 JK^−1 mol^−1, respectively. Comparing these values with the parameters obtained for previously examined mycotoxin-albumin complexes, namely citrinin-HSA and zearalenone-HSA (Table 1), we can conclude that the smaller enthalpy change is associated with higher entropy gain in agreement with the enthalpy-entropy compensation. […]
Fluorolog τ3 spectrofluorometric system (Jobin-Yvon/SPEX) was applied during thermodynamic studies using 280 nm excitation wavelength. […] The binding constants were determined by the Hyperquad2006 program package (Equation (4)). The enthalpy and entropy changes of complex formation between AFB1 and HSA molecules were calculated as follows: the logarithms of binding constants (logK) at different temperatures were plotted against the reciprocal temperature according to the van’t Hoff equation. […]

[6] = target: T1, human serum albumin (HSA); details: cited from earlier work
[7] = target: T1, human serum albumin (HSA); design: purchased Sigma-Aldrich; details: cited from earlier work
[8] = previously reported data ref 16
[9] = previously reported data ref 20

Sequence of porcine serum albumin (PSA) (P08835 25-607 limits assumed): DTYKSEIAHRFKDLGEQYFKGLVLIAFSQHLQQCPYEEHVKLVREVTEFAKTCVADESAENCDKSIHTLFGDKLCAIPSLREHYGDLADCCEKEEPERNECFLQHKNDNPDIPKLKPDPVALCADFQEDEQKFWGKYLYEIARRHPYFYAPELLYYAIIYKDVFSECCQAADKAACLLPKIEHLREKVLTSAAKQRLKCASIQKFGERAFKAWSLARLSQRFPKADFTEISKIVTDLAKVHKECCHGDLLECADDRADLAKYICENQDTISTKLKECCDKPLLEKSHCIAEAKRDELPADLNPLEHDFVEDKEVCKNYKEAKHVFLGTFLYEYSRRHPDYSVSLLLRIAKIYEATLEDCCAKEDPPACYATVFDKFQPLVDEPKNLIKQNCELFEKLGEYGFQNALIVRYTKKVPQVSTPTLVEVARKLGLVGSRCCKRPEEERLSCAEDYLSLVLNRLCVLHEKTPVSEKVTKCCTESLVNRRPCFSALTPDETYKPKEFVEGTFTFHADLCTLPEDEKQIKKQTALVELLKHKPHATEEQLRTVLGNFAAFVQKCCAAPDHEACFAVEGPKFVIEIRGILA
Sequence of bovine serum albumin (BSA) (P02769 25-607 limits assumed): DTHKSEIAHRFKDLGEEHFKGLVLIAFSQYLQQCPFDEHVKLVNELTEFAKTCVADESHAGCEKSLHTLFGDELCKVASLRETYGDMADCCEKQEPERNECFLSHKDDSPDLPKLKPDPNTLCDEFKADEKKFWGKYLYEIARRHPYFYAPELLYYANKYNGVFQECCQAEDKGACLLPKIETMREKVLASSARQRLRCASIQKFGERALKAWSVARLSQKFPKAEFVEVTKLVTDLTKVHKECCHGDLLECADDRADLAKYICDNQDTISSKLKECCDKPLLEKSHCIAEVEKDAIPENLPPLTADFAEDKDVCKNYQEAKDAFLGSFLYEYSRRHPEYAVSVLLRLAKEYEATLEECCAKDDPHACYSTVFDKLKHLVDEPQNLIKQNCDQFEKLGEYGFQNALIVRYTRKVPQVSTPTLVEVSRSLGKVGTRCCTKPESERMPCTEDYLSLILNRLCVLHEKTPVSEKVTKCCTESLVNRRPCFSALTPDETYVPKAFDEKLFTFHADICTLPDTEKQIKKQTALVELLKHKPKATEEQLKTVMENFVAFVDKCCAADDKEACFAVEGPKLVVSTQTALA
Sequence of rat serum albumin (RSA) (P02770 25-608 limits assumed): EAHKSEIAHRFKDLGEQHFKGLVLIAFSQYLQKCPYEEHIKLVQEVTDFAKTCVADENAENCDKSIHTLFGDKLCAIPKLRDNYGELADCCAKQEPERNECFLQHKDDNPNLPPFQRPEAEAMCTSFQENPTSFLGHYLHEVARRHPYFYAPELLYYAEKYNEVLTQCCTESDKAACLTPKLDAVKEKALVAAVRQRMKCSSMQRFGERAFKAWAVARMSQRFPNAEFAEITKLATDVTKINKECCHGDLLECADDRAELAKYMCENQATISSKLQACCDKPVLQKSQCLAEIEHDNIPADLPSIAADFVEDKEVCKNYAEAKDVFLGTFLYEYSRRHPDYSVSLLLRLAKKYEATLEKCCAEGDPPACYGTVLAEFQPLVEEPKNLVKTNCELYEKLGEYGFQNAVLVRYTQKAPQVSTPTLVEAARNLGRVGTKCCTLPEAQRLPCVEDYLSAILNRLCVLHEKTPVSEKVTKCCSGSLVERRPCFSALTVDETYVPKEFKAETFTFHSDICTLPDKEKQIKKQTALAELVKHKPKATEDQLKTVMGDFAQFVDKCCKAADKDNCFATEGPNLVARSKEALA

Structure (SMILES) | effect on fluorescence signal of HSA-bound warfarin at 379 nm (displacement of WAR from HSA) [3] | logK (binding constant) [4] | logKSV (Stern-Volmer quenching constant) [4] | logKa (association constant) [4] | n (number of binding sites) [4] | also measured
COc1cc2c(c3oc(=O)c4c(c13)CCC4=O)[C@H]1C=CO[C@H]1O2 [AFB1, aflatoxin B1] | significant decrease of the fluorescence signal at 379 nm | 4.65 ± 0.01 | 4.44 ± 0.06 | 4.46 ± 0.08 | 1.005 ± 0.029 | logK (binding constant) [1]: 4.63 ± 0.01; logKSV (Stern-Volmer quenching constant) [1]: 4.41 ± 0.06; logKa (association constant) [1]: 4.44 ± 0.01; n (number of binding sites) [1]: 1.006 ± 0.015; logK (binding constant) [2]: 4.62 ± 0.01; logKSV (Stern-Volmer quenching constant) [2]: 4.45 ± 0.00; logKa (association constant) [2]: 4.52 ± 0.10; n (number of binding sites) [2]: 1.023 ± 0.034; logK (binding constant) (rat serum albumin (RSA)): 4.91 ± 0.01; logKSV (Stern-Volmer quenching constant) (rat serum albumin (RSA)): 4.82 ± 0.01; logKa (association constant) (rat serum albumin (RSA)): 4.90 ± 0.11; n (number of binding sites) (rat serum albumin (RSA)): 0.998 ± 0.051; ΔG (298.16 K) of complex formation with HSA [5]: -6.429 kcal/mol; ΔH of complex formation with HSA [5]: -2.505 kcal/mol
COc1cc2c(c3oc(=O)c4c(c13)CCC4=O)[C@@H]1CCO[C@@H]1O2 [AFB2, aflatoxin B2] | considerably decreased the fluorescence intensity of WAR at 379 nm | 4.55 ± 0.01 | 4.21 ± 0.02 | 4.40 ± 0.08 | 1.054 ± 0.000 | 
COc1cc2c(c3oc(=O)c4c(c13)CCOC4=O)C1C=COC1O2 (stereo not shown) [AFG1, aflatoxin G1] | Very similar spectroscopic changes | 4.58 ± 0.01 | 4.33 ± 0.04 | 4.43 ± 0.03 | 1.020 ± 0.019 | 
COc1cc2c(c3oc(=O)c4c(c13)CCOC4=O)[C@@H]1CCO[C@@H]1O2 [AFG2, aflatoxin G2] | considerably decreased the fluorescence intensity of WAR at 379 nm | 4.34 ± 0.01 | 3.96 ± 0.04 | 4.04 ± 0.07 | 1.017 ± 0.025 | 
COc1cc2c(c3oc(=O)c4c(c13)CCC4=O)[C@@]1(O)C=CO[C@H]1O2 [AFM1, aflatoxin M1] | considerably decreased the fluorescence intensity of WAR at 379 nm | 4.52 ± 0.01 | 4.28 ± 0.01 | 4.26 ± 0.00 | 1.004 ± 0.013 | 
CN(C)c1ccc(N=Nc2ccc(S(=O)(=O)[O-])cc2)cc1.[Na+] [MO, methyl orange] |  |  |  |  |  | logK of MO-HSA complex [6]: ~ 5
CC1=C2C(=CO[C@H](C)[C@H]2C)C(O)=C(C(=O)O)C1=O [citrinin] |  |  |  |  |  | ΔG (298.16 K) of complex formation with HSA [7, 8]: -7.161 kcal/mol; ΔH of complex formation with HSA [7, 8]: -5.772 kcal/mol; ΔS of complex formation with HSA [7, 8]: 20.90 JK^−1 mol^−1
C[C@H]1CCCC(=O)CCC/C=C/c2cc(O)cc(O)c2C(=O)O1 [zearalenone] |  |  |  |  |  | ΔG (298.16 K) of complex formation with HSA [7, 9]: -6.946 kcal/mol; ΔH of complex formation with HSA [7, 9]: -7.192 kcal/mol; ΔS of complex formation with HSA [7, 9]: −3.50 JK^−1 mol^−1
